Earlier results, collected in patent US7922709B2, “Enhanced delivery of naked DNA to skin by non-invasive in vivo electroporation” (priority 1998, dated 2011).

bleomycin
log P (partition coefficient between octanol and water): very negative
